tested on: Botrytis cinerea; experiment: Test A: preventive spray on tomato seedlings, Botrytis cinerea (gray mold), visual disease rating; assay type: in vivo; settings: 100 = 100% disease control, 0 = no control relative to controls, unmarked values
Description: General protocol for preparing test suspensions for Tests A-E: the test compounds were first dissolved in acetone in an amount equal to 3% of the final volume and then suspended at the desired concentration (in ppm) in acetone and purified water (50/50 mix by volume) containing 250 ppm of the surfactant Trem® 014 (polyhydric alcohol esters). The resulting test suspensions were then used in Tests A-E. Compounds were sprayed with either a 40 ppm or 10 ppm (*) test suspension to the point of run-off on the test plants which is the equivalent of a rate of 160 g ai/ha or 40 g ai/ha, respectively.
The test suspension was sprayed to the point of run-off on tomato seedlings. The following day the seedlings were inoculated with a spore suspension of Botrytis cinerea (the causal agent of gray mold on many crops) and incubated in a saturated atmosphere at 20° C. for 48 h, and moved to a growth chamber at 27° C. for 2 days, after which time visual disease ratings were made.
Results for Tests A-E are given in Table A. In the Table, a rating of 100 indicates 100% disease control and a rating of 0 indicates no disease control (relative to the controls). A dash (-) indicates no test results.

| Structure (SMILES) | Test A disease control rating |
| --- | --- |
| O=C(Nc1ccccc1-c1ccc(-n2cc(-c3ccc(F)cc3)cn2)nc1)c1ncccc1C(F)(F)F [compound 30] | 33% |
| Cn1cc(C(=O)Nc2ccccc2-c2ccc(-n3cc(Br)cn3)nc2)c(C(F)F)n1 [compound 31] | 100% |
| O=C(Nc1ccccc1-c1ccc(-n2cc(Cl)cn2)nc1)c1ncccc1C(F)(F)F [compound 32] | 99% |
| O=C(Nc1ccccc1-c1cnc(-n2ccc(C(F)(F)F)n2)c(Cl)c1)c1ccccc1C(F)(F)F [compound 33] | 15% |
| Cn1cc(C(=O)Nc2ccccc2-c2cnc(-n3ccc(C(F)(F)F)n3)c(Cl)c2)c(C(F)F)n1 [compound 35] | 97% |
| Cc1cc(-c2ccccc2NC(=O)c2ccccc2C(F)(F)F)cnc1-n1ccc(C(F)(F)F)n1 [compound 36] | 28% |
| Cc1cc(-c2ccccc2NC(=O)c2ncccc2C(F)(F)F)cnc1-n1ccc(C(F)(F)F)n1 [compound 37] | 95% |
| Cc1cc(-c2ccccc2NC(=O)c2cn(C)nc2C(F)F)cnc1-n1ccc(C(F)(F)F)n1 [compound 38] | 90% |
| O=C(Nc1ccccc1-c1ccc(-n2ccc(-c3ccccc3)n2)nc1)c1ncccc1C(F)(F)F [compound 39] | 45% |
| Cn1cc(C(=O)Nc2ccccc2-c2ccc(-n3ccc(-c4ccccc4)n3)nc2)c(C(F)F)n1 [compound 41] | 99% |
| O=C(Nc1ccccc1-c1ccc(-n2ccc(-c3ccccc3)n2)nc1)c1ccccc1C(F)(F)F [compound 42] | 40% |
| Cc1cnn(-c2ccc(-c3ccccc3NC(=O)c3ccccc3C(F)(F)F)cn2)c1 [compound 43] | 94% |

tested on: Stagonospora nodorum (also known as Septoria nodorum); experiment: Test B: preventive spray on wheat seedlings, Stagonospora nodorum (wheat glume blotch), visual disease rating; assay type: in vivo; settings: 100 = 100% disease control, 0 = no control, unmarked values
Outline: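 Compounds in acetone/water (50/50) with 250 ppm Trem 014 surfactant were sprayed to run-off at 40 ppm (160 g ai/ha) or 10 ppm (40 g ai/ha). Seedlings were inoculated with S. nodorum spores the next day, then held 48 h saturated at 20 °C and 6 days in a growth chamber at 20 °C. Visual rating as % disease control vs untreated.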

| Structure (SMILES) | Test B disease control rating |
| --- | --- |
| O=C(Nc1ccccc1-c1ccc(-n2cc(-c3ccc(F)cc3)cn2)nc1)c1ncccc1C(F)(F)F [compound 30] | 82% |
| Cn1cc(C(=O)Nc2ccccc2-c2ccc(-n3cc(Br)cn3)nc2)c(C(F)F)n1 [compound 31] | 100% |
| O=C(Nc1ccccc1-c1ccc(-n2cc(Cl)cn2)nc1)c1ncccc1C(F)(F)F [compound 32] | 100% |
| O=C(Nc1ccccc1-c1cnc(-n2ccc(C(F)(F)F)n2)c(Cl)c1)c1ccccc1C(F)(F)F [compound 33] | 60% |
| Cn1cc(C(=O)Nc2ccccc2-c2cnc(-n3ccc(C(F)(F)F)n3)c(Cl)c2)c(C(F)F)n1 [compound 35] | 100% |
| Cc1cc(-c2ccccc2NC(=O)c2ccccc2C(F)(F)F)cnc1-n1ccc(C(F)(F)F)n1 [compound 36] | 98% |
| Cc1cc(-c2ccccc2NC(=O)c2ncccc2C(F)(F)F)cnc1-n1ccc(C(F)(F)F)n1 [compound 37] | 100% |
| Cc1cc(-c2ccccc2NC(=O)c2cn(C)nc2C(F)F)cnc1-n1ccc(C(F)(F)F)n1 [compound 38] | 100% |
| O=C(Nc1ccccc1-c1ccc(-n2ccc(-c3ccccc3)n2)nc1)c1ncccc1C(F)(F)F [compound 39] | 0% |
| Cn1cc(C(=O)Nc2ccccc2-c2ccc(-n3ccc(-c4ccccc4)n3)nc2)c(C(F)F)n1 [compound 41] | 40% |
| O=C(Nc1ccccc1-c1ccc(-n2ccc(-c3ccccc3)n2)nc1)c1ccccc1C(F)(F)F [compound 42] | 0% |
| Cc1cnn(-c2ccc(-c3ccccc3NC(=O)c3ccccc3C(F)(F)F)cn2)c1 [compound 43] | 99% |

tested on: Septoria tritici; experiment: Test C: preventive spray on wheat seedlings, Septoria tritici (wheat leaf blotch), visual disease rating; assay type: in vivo; settings: 100 = 100% disease control, 0 = no control, unmarked values
Outline: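 Wheat seedlings sprayed to run-off at 40 ppm or 10 ppm (160 or 40 g ai/ha) in acetone/water with surfactant, inoculated with Septoria tritici spores next day. Held 48 h saturated at 24 °C, then 21 days at 20 °C. Visual rating scored as % disease control relative to controls.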

| Structure (SMILES) | Test C disease control rating |
| --- | --- |
| O=C(Nc1ccccc1-c1ccc(-n2cc(-c3ccc(F)cc3)cn2)nc1)c1ncccc1C(F)(F)F [compound 30] | 91% |
| Cn1cc(C(=O)Nc2ccccc2-c2ccc(-n3cc(Br)cn3)nc2)c(C(F)F)n1 [compound 31] | 100% |
| O=C(Nc1ccccc1-c1ccc(-n2cc(Cl)cn2)nc1)c1ncccc1C(F)(F)F [compound 32] | 100% |
| O=C(Nc1ccccc1-c1cnc(-n2ccc(C(F)(F)F)n2)c(Cl)c1)c1ccccc1C(F)(F)F [compound 33] | 100% |
| Cn1cc(C(=O)Nc2ccccc2-c2cnc(-n3ccc(C(F)(F)F)n3)c(Cl)c2)c(C(F)F)n1 [compound 35] | 100% |
| Cc1cc(-c2ccccc2NC(=O)c2ccccc2C(F)(F)F)cnc1-n1ccc(C(F)(F)F)n1 [compound 36] | 100% |
| Cc1cc(-c2ccccc2NC(=O)c2ncccc2C(F)(F)F)cnc1-n1ccc(C(F)(F)F)n1 [compound 37] | 100% |
| Cc1cc(-c2ccccc2NC(=O)c2cn(C)nc2C(F)F)cnc1-n1ccc(C(F)(F)F)n1 [compound 38] | 100% |
| O=C(Nc1ccccc1-c1ccc(-n2ccc(-c3ccccc3)n2)nc1)c1ncccc1C(F)(F)F [compound 39] | 92% |
| Cn1cc(C(=O)Nc2ccccc2-c2ccc(-n3ccc(-c4ccccc4)n3)nc2)c(C(F)F)n1 [compound 41] | 100% |
| O=C(Nc1ccccc1-c1ccc(-n2ccc(-c3ccccc3)n2)nc1)c1ccccc1C(F)(F)F [compound 42] | 87% |
| Cc1cnn(-c2ccc(-c3ccccc3NC(=O)c3ccccc3C(F)(F)F)cn2)c1 [compound 43] | 98% |

tested on: Puccinia recondite f. sp. tritici; experiment: Test D: preventive spray on wheat seedlings, Puccinia recondite f. sp. tritici (wheat leaf rust), visual disease rating; assay type: in vivo; settings: 100 = 100% disease control, 0 = no control, unmarked values
Outline: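 Wheat seedlings sprayed to run-off with 40 ppm (160 g ai/ha) or 10 ppm (40 g ai/ha) suspension in acetone/water with 250 ppm surfactant, inoculated next day with leaf rust spores. After 24 h saturated at 20 °C then 6 days at 20 °C, visual rating of disease control (0–100) relative to controls.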

| Structure (SMILES) | Test D disease control rating |
| --- | --- |
| O=C(Nc1ccccc1-c1ccc(-n2cc(-c3ccc(F)cc3)cn2)nc1)c1ncccc1C(F)(F)F [compound 30] | 89% |
| Cn1cc(C(=O)Nc2ccccc2-c2ccc(-n3cc(Br)cn3)nc2)c(C(F)F)n1 [compound 31] | 100% |
| O=C(Nc1ccccc1-c1ccc(-n2cc(Cl)cn2)nc1)c1ncccc1C(F)(F)F [compound 32] | 100% |
| O=C(Nc1ccccc1-c1cnc(-n2ccc(C(F)(F)F)n2)c(Cl)c1)c1ccccc1C(F)(F)F [compound 33] | 100% |
| Cn1cc(C(=O)Nc2ccccc2-c2cnc(-n3ccc(C(F)(F)F)n3)c(Cl)c2)c(C(F)F)n1 [compound 35] | 100% |
| Cc1cc(-c2ccccc2NC(=O)c2ccccc2C(F)(F)F)cnc1-n1ccc(C(F)(F)F)n1 [compound 36] | 100% |
| Cc1cc(-c2ccccc2NC(=O)c2ncccc2C(F)(F)F)cnc1-n1ccc(C(F)(F)F)n1 [compound 37] | 100% |
| Cc1cc(-c2ccccc2NC(=O)c2cn(C)nc2C(F)F)cnc1-n1ccc(C(F)(F)F)n1 [compound 38] | 100% |
| O=C(Nc1ccccc1-c1ccc(-n2ccc(-c3ccccc3)n2)nc1)c1ncccc1C(F)(F)F [compound 39] | 92% |
| Cn1cc(C(=O)Nc2ccccc2-c2ccc(-n3ccc(-c4ccccc4)n3)nc2)c(C(F)F)n1 [compound 41] | 100% |
| O=C(Nc1ccccc1-c1ccc(-n2ccc(-c3ccccc3)n2)nc1)c1ccccc1C(F)(F)F [compound 42] | 68% |
| Cc1cnn(-c2ccc(-c3ccccc3NC(=O)c3ccccc3C(F)(F)F)cn2)c1 [compound 43] | 74% |

tested on: Erysiphe graminis f. sp. tritici; experiment: Test E: preventive spray on wheat seedlings, Erysiphe graminis f. sp. tritici (wheat powdery mildew), visual disease rating; assay type: in vivo; settings: 100 = 100% disease control, 0 = no control, unmarked values
Outline: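 Wheat seedlings were sprayed to run-off with 40 or 10 ppm suspension (160 or 40 g ai/ha) and dusted with spores the next day. They were then kept 8 days at 20 °C. Disease was rated visually as % control relative to untreated controls (0–100).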

| Structure (SMILES) | Test E disease control rating |
| --- | --- |
| O=C(Nc1ccccc1-c1ccc(-n2cc(-c3ccc(F)cc3)cn2)nc1)c1ncccc1C(F)(F)F [compound 30] | 69% |
| Cn1cc(C(=O)Nc2ccccc2-c2ccc(-n3cc(Br)cn3)nc2)c(C(F)F)n1 [compound 31] | 99% |
| O=C(Nc1ccccc1-c1ccc(-n2cc(Cl)cn2)nc1)c1ncccc1C(F)(F)F [compound 32] | 99% |
| O=C(Nc1ccccc1-c1cnc(-n2ccc(C(F)(F)F)n2)c(Cl)c1)c1ccccc1C(F)(F)F [compound 33] | 99% |
| Cn1cc(C(=O)Nc2ccccc2-c2cnc(-n3ccc(C(F)(F)F)n3)c(Cl)c2)c(C(F)F)n1 [compound 35] | 100% |
| Cc1cc(-c2ccccc2NC(=O)c2ccccc2C(F)(F)F)cnc1-n1ccc(C(F)(F)F)n1 [compound 36] | 99% |
| Cc1cc(-c2ccccc2NC(=O)c2ncccc2C(F)(F)F)cnc1-n1ccc(C(F)(F)F)n1 [compound 37] | 100% |
| Cc1cc(-c2ccccc2NC(=O)c2cn(C)nc2C(F)F)cnc1-n1ccc(C(F)(F)F)n1 [compound 38] | 100% |
| O=C(Nc1ccccc1-c1ccc(-n2ccc(-c3ccccc3)n2)nc1)c1ncccc1C(F)(F)F [compound 39] | 89% |
| Cn1cc(C(=O)Nc2ccccc2-c2ccc(-n3ccc(-c4ccccc4)n3)nc2)c(C(F)F)n1 [compound 41] | 84% |
| O=C(Nc1ccccc1-c1ccc(-n2ccc(-c3ccccc3)n2)nc1)c1ccccc1C(F)(F)F [compound 42] | 21% |
| Cc1cnn(-c2ccc(-c3ccccc3NC(=O)c3ccccc3C(F)(F)F)cn2)c1 [compound 43] | 92% |
